Data published in PMC12196235, “Enhancing the Pharmacological Properties of Triterpenes Through Acetylation: An Anticancer and Antioxidant Perspective” (Molecules, 2025).
Where “and” joins values, the source holds several entries; their conditions need not be identical. Identical values can stand only once. Like-named read-outs stand apart in the source and are kept apart here.

Assays:
[1] = test system: A-549 (human lung carcinoma); assay: MTT assay, A-549; format: cell-based; details: for IC50: MTT assay, A-549, read-out: IC50 (±SD), A-549; for Selectivity index (SI), A-549: IC50 HDF / IC50 A-549
Procedure: (§1) All the cell lines and mediums were obtained from the American Type Culture Collection (ATCC) supplied by LGC-Standards (Lomianki, Poland). Human cancer cell lines were cultured as follows: HeLa (human cervix carcinoma) and KB (human oral squamous carcinoma) lines were cultured in DMEM (Dulbecco’s Modified Eagle’s Medium); MCF-7 (human breast carcinoma) and A-549 (human lung carcinoma) were cultured in RPMI 1640 medium; PC-3 (human prostate carcinoma) was cultured in F-12K medium; SKOV-3 (human ovarian cystadenocarcinoma) was cultured in McCoy’s modified medium; HDF (human normal dermal fibroblasts) was cultured in Fibroblast Basal Medium. Each medium was supplemented with 10% fetal bovine serum, 1% L- glutamine and 1% penicillin/streptomycin solution. The cell lines were kept in an incubator at 37 °C.
(§2) All the tested cell lines (HeLa, KB, MCF-7, A-549, PC-3, SKOV-3 and HDF) were subjected to MTT assay. In short, this assay is based on the reaction between mitochondria enzymes (dehydrogenases) of tested cell lines and 3-(4,5-dimethylthiazol-2-yl)-2,5-diphenyltetrazolium bromide (MTT). The final product of this reaction gives violet formazan crystals. The number of live cells is proportional to the amount of formazan and is represented by the violet dye reagent. The details of the experiments are given in [19].

[2] = test system: MCF-7 (human breast carcinoma); assay: MTT assay, MCF-7; format: cell-based; details: for IC50: MTT assay, MCF-7, read-out: IC50 (±SD), MCF-7; for Selectivity index (SI), MCF-7: IC50 HDF / IC50 MCF-7
Procedure: as §1, §2

[3] = test system: HeLa (human cervical epithelioid carcinoma); assay: MTT assay, HeLa; format: cell-based; details: for IC50: MTT assay, HeLa, read-out: IC50 (±SD), HeLa; for Selectivity index (SI), HeLa: IC50 HDF / IC50 HeLa
Procedure: as §1, §2

[4] = test system: PC-3 (human prostate carcinoma); assay: MTT assay, PC-3; format: cell-based; details: for IC50: MTT assay, PC-3, read-out: IC50 (±SD), PC-3; for Selectivity index (SI), PC-3: IC50 HDF / IC50 PC-3
Procedure: as §1, §2

[5] = test system: KB (human oral squamous carcinoma); assay: MTT assay, KB; format: cell-based; details: for IC50: MTT assay, KB; for Selectivity index (SI), KB: IC50 HDF / IC50 KB
Procedure: as §1, §2

[6] = test system: KB-VIN (multidrug resistant human epidermoid carcinoma); details: ref 104; cited from earlier work
[7] = CUPRAC antioxidant assay; details: calculated from Trolox standard curve
Procedure: (§3) The results are presented as % inhibition of the copper(II) ions and Trolox equivalent calculated from the standard curve (Figure 9) and as % inhibition of the DPPH radical and Trolox equivalent, calculated from the standard curve (Figure 10).
(§4) The CUPRAC reagent (7.5 mM ethanolic 96% neocuproine solution, 10 mM CuCl2 × H2O solution and an ammonium acetate buffer of pH 7.0) and DPPH reagent (2,2-diphenyl-1-picrylhydrazyl 0.2 mM solution) were applied.
(§5) The CUPRAC method measures the reducing power of a sample by quantifying its ability to convert the Cu-neocuproine reagent complex to the Cu(I) form. In contrast, the DPPH assay relies on the ability of an antioxidant to donate a hydrogen atom or an electron to the stable DPPH radical, resulting in its reduction and subsequent color change. The results are presented as % inhibition of the copper(II) ions and Trolox equivalent calculated from the standard curve (Figure 9) and as % inhibition of the DPPH radical and Trolox equivalent, calculated from the standard curve (Figure 10). The spectroscopic detection in CUPRAC and DPPH assays was conducted with Synergy H1 Multi-Mode Microplate Reader (BioTek Instruments, Inc., Winooski, VT, USA). The details of the experiments are given in [102].

[8] = test system: SKOV-3; assay: Apoptosis assay (Cell Death Detection ELISA Plus), SKOV-3; format: cell-based, human; details: SKOV-3, 4 h incubation, enrichment of mono- and oligonucleosomes vs negative control
Procedure: (§6) The induction of apoptosis by tested compounds was determined with Cell Death Detection ELISA Plus from Roche Diagnostics GmbH (Mannheim, Germany).
(§7) Cell Death Detection ELISA Plus is an enzyme immunoassay for determining cytoplasmic histone-associated DNA fragments (mono- and […]) after induced cell death. Cells (10^4) were pipetted into wells of 96-well plates, and test compounds were added at final concentrations of 0.1, 1.0 and 10.0 µg × mL^−1. Cells incubated in the absence of test compounds served as negative controls. After 4 h of incubation, cells were harvested by centrifugation of the plates for 10 min at 200× g. Supernatants were removed carefully, and cell pellets were resuspended in 200 µL of cell lysis buffer and incubated for 30 min at room temperature. After centrifugation of the plates (10 min at 200× g), 20 µL of cell lysates was transferred in duplicate into wells of provided streptavidin-coated microplates. Then, 80 µL of the immunoreagent containing a mixture of anti-histone-biotin monoclonal antibody and anti-DNA-peroxidase monoclonal antibody was added to each well. The microplates were covered with a provided adhesive foil and incubated for 2 h at room temperature. Thereafter, the solution in the wells was removed by tapping the microplate. The wells were rinsed three times with incubation buffer, and 100 µL of substrate (2,2′-azino-bis [3-ethylbenzothiazoline-6-sulphonic acid], ABTS) was added to each well. After 10–20 min, 100 µL of ABTS stop solution was pipetted to each well, and the absorbance was read at 405 nm (test wavelength) and 490 nm (reference wavelength). The apoptotic index was calculated based on the enrichment of mono- and oligonucleosomes according to the following equation:apoptotic index = [{A405(sample) − A490(sample)}/{A405(negative control) − A490(negative control)}]

[9] = test system: KB (human oral squamous carcinoma); details: ref 104; cited from earlier work
[10] = test system: PC-3; assay: Apoptosis assay (Cell Death Detection ELISA Plus), PC-3; format: cell-based, human; details: PC-3, 4 h incubation, enrichment of mono- and oligonucleosomes vs negative control
Procedure: as §6, §7

[11] = test system: A-549 (human lung carcinoma); details: ref 104; read-out: IC50 (A-549); cited from earlier work
[12] = test system: HDF (human dermal fibroblasts); assay: MTT assay, normal HDF; format: cell-based; details: read-out: IC50 (±SD), HDF
Procedure: as §1, §2

[13] = test system: HT-29 (human colorectal adenocarcinoma); details: ref 105; read-out: IC50 (HT-29); cited from earlier work
[14] = DPPH antioxidant assay; details: calculated from Trolox standard curve
Procedure: as §3, §4, §5

[15] = test system: HeLa, KB, MCF-7, A-549, PC-3 and SKOV-3; assay: MTT assay, summary over the cancer cell lines; format: cell-based, human; details: for cytotoxic activity class: classification by IC50 (good ≤ 10 μM, moderate 10–30 μM, ref 83)
Procedure: as §1, §2

[16] = test system: J774A.1 (macrophage-like cell line); details: ref 106; cited from earlier work
[17] = test system: B16-F10 (murine melanoma); details: cited from earlier work
[18] = test system: SKOV-3 (human ovarian carcinoma); assay: MTT assay, SKOV-3; format: cell-based; details: for IC50: MTT assay, SKOV-3, read-out: IC50 (±SD), SKOV-3; for Selectivity index (SI), SKOV-3: IC50 HDF / IC50 SKOV-3
Procedure: as §1, §2

[19] = test system: Hep-G2 (human hepatocellular carcinoma); details: ref 105; read-out: IC50 (Hep-G2); cited from earlier work
[20] = test system: RAW 264.7; details: ref 106; cited from earlier work

IC50 [1] [µM] | IC50 [2] [µM] | SMILES | IC50 ([1]; Homo sapiens, A549) [µM] | Selectivity index (SI), A-549 [1] | IC50 ([2]; Homo sapiens, MCF7) [µM] | Selectivity index (SI), MCF-7 [2] | IC50 ([3]; Homo sapiens) [µM] | Selectivity index (SI), HeLa [3] | IC50 ([4]; Homo sapiens) [µM] | Selectivity index (SI), PC-3 [4] | IC50 ([5]; Homo sapiens) [µM] | Selectivity index (SI), KB [5] | Trolox Equivalent, CUPRAC Assay [7] | Apoptotic index (AI), SKOV-3 [8] | Apoptotic index (AI), PC-3 [10] | IC50 ([12]; Homo sapiens, Fibroblast) [µM] | Trolox Equivalent, DPPH Assay [14] | cytotoxic activity class [15] | IC50 ([18]; Homo sapiens, SK-OV-3) [µM] | Selectivity index (SI), SKOV-3 [18] | also measured
– | – | CC(=O)O[C@H]1CC[C@]2(C)[C@H]3CC=C4[C@@H]5CC(C)(C)CC[C@]5(C(=O)O)CC[C@@]4(C)[C@]3(C)CC[C@H]2C1(C)C [1b, 3-O-Acetyloleanolic acid] | 0.24 | 0.79 | 1.86 | 0.10 | 0.24 | 0.79 | 0.11 | 1.73 | 0.36 | 0.53 | 0.2199 mg/mL and 0.2199 ± 0.00657 mg/mL | 6.79 (0.16) | 6.90 (0.04) | 0.19 | 0.0143 ± 0.000592 mg/mL | very high cytotoxic activity | 0.09 | 2.11 | IC50 [6]: 7.6 µM; IC50 [9]: 7.6 µM; IC50 [11]: 5.8 µM; IC50 [13]: 148 µM; IC50 [16]: 16.8 µM; IC50 ([17]; ref 105): 64.7 µM; IC50 ([17]; ref 107): 64.7 µM; IC50 [19]: 104 µM; IC50 [20]: 13.8 µM
– | – | CC(=O)OCC12CCC(C)(C)CC1C1=CCC3C4(C)CCC(OC(C)=O)C(C)(C)C4CCC3(C)C1(C)CC2 (stereo not shown) [2b, 3,28-di-O-Acetylerythrodiol] | 51.6 | 1.03 | 61.6 | 0.86 | 70.3 | 0.75 | 25.1 | 2.11 | 50 | 1.06 | 0.2402 mg/mL and 0.2402 ± 0.00995 mg/mL | – | – | 53.1 | 0.00313 ± 0.00013 mg/mL | – | 25.5 | 2.08 | –
– | – | CC1(C)CC[C@]23CC[C@]4(C)[C@H](CC[C@@H]5[C@@]6(C)CC[C@H](O)C(C)(C)[C@@H]6CC[C@]54C)[C@H]2[C@H]1OC3 [3a, allobetulin] | 51.7 | 0.93 | 71.1 | 0.68 | 49.4 | 0.97 | 20.2 | 2.39 | 45.3 | 1.06 | 0.08248 mg/mL and 0.08248 ± 0.005 mg/mL | 5.78 (0.01) | 5.27 (0.01) | 48.2 | 0.01677 ± 0.000694 mg/mL | – | 20.9 | 2.30 | IC50 ([15]; Homo sapiens, MTT assay, range over tested cancer cell lines): 20 to 70 µM
> 100 | > 100 | CC(=O)OC1CCC2(C)C(CCC3(C)C2CCC2C4C5OCC4(CCC5(C)C)CCC23C)C1(C)C (stereo not shown) [3b, 3-O-Acetylallobetulin] | – | – | – | – | – | – | – | – | – | – | 0.03212 mg/mL and 0.03212 ± 0.00166 mg/mL | – | – | – | 0.00182 mg/mL and 0.00182 ± 0.000755 mg/mL | – | – | – | IC50 [3]: > 100 µM; IC50 [4]: 52.2 µM; IC50 [5]: > 100 µM; IC50 [12]: 62 µM; IC50 [18]: 53.1 µM
– | – | C=C(C)C1CCC2(C(=O)O)CCC3(C)C(CCC4C5(C)CCC(OC(C)=O)C(C)(C)C5CCC43C)C12 (stereo not shown) [4b, 3-O-Acetylbetulinic acid] | 1.23 | 2.34 | 1.5 | 1.92 | 1.62 | 1.77 | 0.93 | – | 1.5 | 1.92 | 0.1999 mg/mL and 0.1999 ± 0.0015 mg/mL | 7.81 (0.02) | 7.09 (0.01) | 2.88 | 0.00376 ± 0.000156 mg/mL | very high cytotoxic activity | 1.03 | – | –
56.2 | 50 | C=C(C)[C@@H]1CC[C@]2(C)CC[C@]3(C)[C@H](CC[C@@H]4[C@@]5(C)CC[C@H](OC(C)=O)C(C)(C)[C@@H]5CC[C@]43C)[C@@H]12 [6b, 3-O-Acetylolupeol] | – | – | – | – | – | – | – | – | – | – | 0.1349 ± 0.00514 mg/mL | – | – | – | 0.00348 ± 0.000144 mg/mL | – | – | – | IC50 [3]: 72.6 µM; IC50 [4]: 22.2 µM; IC50 [5]: 72.5 µM; IC50 [12]: 35 µM; IC50 [18]: 21.1 µM
